US7109193B2, “Tricyclic diazepines tocolytic oxytocin receptor antagonists” (Wyeth, priority 2001, dated 2006)

Target: T1, human oxytocin receptor (Homo sapiens, UniProt P30559)
T1 construct: host or cells: CHO cells (pcDNA3.1 vector)
T1 sequence (P30559 1-389): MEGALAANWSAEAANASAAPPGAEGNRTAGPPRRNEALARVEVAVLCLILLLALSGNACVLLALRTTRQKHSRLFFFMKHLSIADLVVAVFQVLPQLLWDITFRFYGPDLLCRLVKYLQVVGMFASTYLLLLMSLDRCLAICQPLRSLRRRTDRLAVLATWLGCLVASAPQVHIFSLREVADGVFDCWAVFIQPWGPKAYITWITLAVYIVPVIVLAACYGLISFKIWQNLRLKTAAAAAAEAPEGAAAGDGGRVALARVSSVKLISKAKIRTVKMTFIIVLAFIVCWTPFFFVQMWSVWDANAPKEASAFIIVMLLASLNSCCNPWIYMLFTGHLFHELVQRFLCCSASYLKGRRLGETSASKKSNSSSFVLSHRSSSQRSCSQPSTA
Assay: Oxytocin binding in Chinese Hamster Ovary cell membranes expressing human oxytocin receptors
Details: CHO cell membranes, [3H]oxytocin; for IC50: values in parentheses, read-out: OT (IC50); for inhibition at 0.1 µM: 100 nM, values without parentheses, read-out: OT % inhibition @ 100% nM

SMILES: COc1cc(-c2ccccc2Cl)c(Cl)cc1C(=O)N1Cc2ccc(C(=O)N(C)C3CCN(C)CC3)n2Cc2ccccc21 [Example 43, 10-[(2′-Chloro-6-chloro-3-methoxy-[1,1′-biphenyl]-4-yl)carbonyl]-N-methyl-N-(1-methylpiperidin-4-yl)-10,11-dihydro-5H-pyrrolo[2,1-c][1,4]benzodiazepine-3-carboxamide]
- IC50: 1.66 nM

SMILES: COc1ccccc1-c1ccc(C(=O)N2Cc3ccc(C(=O)N4CCN(CCCN(C)C)CC4)n3Cc3ccccc32)cc1C [Example 245, {4-[3-(Dimethylamino)propyl]-1-piperazinyl}{10-[(2′-methoxy-2-methyl[1,1′-biphenyl]-4-yl)carbonyl]-10,11-dihydro-5H-pyrrolo[2,1-c][1,4]benzodiazepin-3-yl}methanone]
- IC50: 16.9 nM

SMILES: Cc1cc(C(=O)N2Cc3ccc(C(=O)N4CCN(C)CC4)n3Cc3ccccc32)ccc1-c1ccccc1C(F)(F)F [Example 2, (4-Methyl-piperazin-1-yl)-[10-(2-methyl-2′-trifluoromethyl-[1,1′-biphenyl]-4-yl)-carbonyl]-10,11-dihydro-5H-pyrrolo[2,1-c][1,4]benzodiazepin-3-yl-methanone]
- IC50: 12.5 nM

SMILES: Cc1ccccc1-c1ccc(C(=O)N2Cc3ccc(C(=O)N(C)CCCN(C)C)n3Cc3ccccc32)cc1 [Example 104, N-[3-(Dimethylamino)propyl]-N-methyl-10-[(2′-methyl[1,1′-biphenyl]-4-yl)carbonyl]-10,11-dihydro-5H-pyrrolo[2,1-c][1,4]benzodiazepine-3-carboxamide]
- inhibition at 0.1 µM: 96%

SMILES: COc1cccc(-c2cc(OC)c(C(=O)N3Cc4ccc(C(=O)NCCCN(C)C)n4Cc4ccccc43)cc2Cl)c1 [Example 79, 10-[(6-Chloro-3,3′-dimethoxy[1,1′-biphenyl]-4-yl)carbonyl]-N-[3-(dimethylamino)propyl]-10,11-dihydro-5H-pyrrolo[2,1-c][1,4]benzodiazepine-3-carboxamide]
- inhibition at 0.1 µM: 35%

SMILES: O=C(c1ccc(-c2cccc3ccccc23)cc1Cl)N1Cc2cccn2Cc2ccccc21 [Example 24, [2-Chloro-4-(naphthalen-1-yl)phenyl][10,11-dihydro-5H-pyrrolo[2,1-c][1,4]benzodiazepin-10-yl]methanone]
- IC50: 8 nM

SMILES: COc1cccc(-c2ccc(C(=O)N3Cc4ccc(C(=O)NCCCN(C)C)n4Cc4ccccc43)cc2OC)c1 [Example 82, 10-[(2,3′-Dimethoxy[1,1′-biphenyl]-4-yl)carbonyl]-N-[3-(dimethylamino)propyl]-10,11-dihydro-5H-pyrrolo[2,1-c][1,4]benzodiazepine-3-carboxamide]
- inhibition at 0.1 µM: 50%

SMILES: COc1cc(C(=O)N2Cc3ccc(C(=O)N(C)CCCN(C)C)n3Cc3ccccc32)ccc1-c1ccccc1C [Example 105, N-[3-(Dimethylamino)propyl]-10-[(2-methoxy-2′-methyl[1,1′-biphenyl]-4-yl)carbonyl]-N-methyl-10,11-dihydro-5H-pyrrolo[2,1-c][1,4]benzodiazepine-3-carboxamide]
- inhibition at 0.1 µM: 97%

SMILES: Cc1ccccc1-c1ccc(C(=O)N2Cc3ccc(C(=O)N(C)CCN(C)C)n3Cc3ccccc32)cc1 [Example 91, N-[2-(Dimethylamino)ethyl]-N-methyl-10-[(2′-methyl[1,1′-biphenyl]-4-yl)carbonyl]-10,11-dihydro-5H-pyrrolo[2,1-c][1,4]benzodiazepine-3-carboxamide]
- inhibition at 0.1 µM: 97%

SMILES: COc1ccccc1-c1ccc(C(=O)N2Cc3ccc(C(=O)N4CCN(CCN(C)C)CC4)n3Cc3ccccc32)cc1C [Example 195, {4-[2-(Dimethylamino)ethyl]-1-piperazinyl}{10-[(2′-methoxy-2-methyl[1,1′-biphenyl]-4-yl)carbonyl]-10,11-dihydro-5H-pyrrolo[2,1-c][1,4]benzodiazepin-3-yl}methanone]
- IC50: 3.84 nM

SMILES: COc1cc(C(=O)N2Cc3ccc(C(=O)NCCCN(C)C)n3Cc3ccccc32)ccc1-c1cccc2ccccc12 [Example 80, N-[3-(Dimethylamino)propyl]-10-[3-methoxy-4-(1-naphthyl)benzoyl]-10,11-dihydro-5H-pyrrolo[2,1-c][1,4]benzodiazepine-3-carboxamide]
- inhibition at 0.1 µM: 44%

SMILES: COc1ccccc1-c1ccc(C(=O)N2Cc3ccc(C(=O)N(C)CCCN(C)C)n3Cc3ccccc32)cc1 [Example 103, N-[3-(Dimethylamino)propyl]-10-[(2′-methoxy[1,1′-biphenyl]-4-yl)carbonyl]-N-methyl-10,11-dihydro-5H-pyrrolo[2,1-c][1,4]benzodiazepine-3-carboxamide]
- inhibition at 0.1 µM: 98%

SMILES: Cc1cc(C(=O)N2Cc3ccc(C(=O)N4CCN(CCCN(C)C)CC4)n3Cc3ccccc32)ccc1-c1ccccc1C(F)(F)F [Example 4, [4-(3-Dimethylaminopropyl)-piperazin-1-yl]-[10-(2-methyl-2′-trifluoromethyl-[1,1′-biphenyl]-4-yl)carbonyl]-[10,11-dihydro-5H-pyrrolo[2,1-c][1,4]benzodiazepin-3-yl]-methanone]
- IC50: 8.89 nM

SMILES: C=CCN1CCN(C(=O)c2ccc3n2Cc2ccccc2N(C(=O)c2ccc(-c4ccccc4OC)cc2)C3)CC1 [Example 221, (4-Allyl-1-piperazinyl){10-[(2′-methoxy[1,1′-biphenyl]4-yl)carbonyl]-10,11-dihydro-5H -pyrrolo[2,1-c][1,4]benzodiazepin-3-yl}methanone]
- IC50: 11.1 nM

SMILES: Cc1cc(C(=O)N2Cc3ccc(C(=O)N4CC[C@@H](N(C)C)C4)n3Cc3ccccc32)ccc1-c1ccccc1C(F)(F)F [Example 271, [(3R)-3-(Dimethylamino)pyrrolidinyl](10-{[2-methyl-2′-(trifluoromethyl)[1,1′-biphenyl]-4-yl]carbonyl}-10,11-dihydro-5H-pyrrolo[2,1-c][1,4]benzodiazepin-3-yl)methanone]
- IC50: 6.29 nM

SMILES: COc1ccccc1-c1ccc(C(=O)N2Cc3ccc(C(=O)N4CCN(CCCN(C)C)CC4)n3Cc3ccccc32)cc1 [Example 246, {4-[3-(Dimethylamino)propyl]-1-piperazinyl}{10-[(2′-methoxy[1,1′-biphenyl]-4-yl)carbonyl]-10,11-dihydro-5H-pyrrolo[2,1-c][1,4]benzodiazepin-3-yl}methanone]
- IC50: 17.8 nM

SMILES: COc1cc(C(=O)N2Cc3ccc(C(=O)N(C)CCCN(C)C)n3Cc3ccccc32)ccc1-c1cccc2ccccc12 [Example 106, N-[3-(Dimethylamino)propyl]-10-[3-methoxy-4-(1-naphthyl)benzoyl]-N-methyl-10,11-dihydro-5H-pyrrolo[2,1-c][1,4]benzodiazepine-3-carboxamide]
- inhibition at 0.1 µM: 88%

SMILES: COc1cc(-c2ccccc2C)c(Cl)cc1C(=O)N1Cc2ccc(C(=O)N3CC[C@@H](N(C)C)C3)n2Cc2ccccc21 [Example 273, {10-[(6-Chloro-3-methoxy-2′-methyl[1,1′-biphenyl]-4-yl)carbonyl]-10,11-dihydro-5H-pyrrolo[2,1-c][1,4]benzodiazepin-3-yl}[(3R)-3-(dimethylamino)pyrrolidinyl]methanone]
- IC50: 4.26 nM

SMILES: COc1ccccc1-c1ccc(C(=O)N2Cc3ccc(C(=O)N4CCN(C)CC4)n3Cc3ccccc32)cc1 [Example 48, {10-[(2′-Methoxy[1,1′-biphenyl]-4-yl)carbonyl]-10,11-dihydro-5H-pyrrolo[2,1-c][1,4]benzodiazepin-3-yl}(4-methyl-1-piperazinyl)methanone]
- IC50: 6.7 nM

SMILES: COc1cc(C(=O)N2Cc3ccc(C(=O)N(C)CCN(C)C)n3Cc3ccccc32)ccc1-c1ccccc1C(F)(F)F [Example 22, N-Methyl-[N-(2-dimethylamino)ethyl]-10-{[2-methoxy-2′-trifluoromethyl-[1,1′-biphenyl]-4-yl]carbonyl}-10,11-dihydro-5H-pyrrolo[2,1-c][1,4]benzodiazepine-3-carboxamide]
- IC50: 1.74 nM

SMILES: COc1cccc(-c2ccc(C(=O)N3Cc4ccc(C(=O)N(C)CCCN(C)C)n4Cc4ccccc43)cc2C)c1 [Example 102, N-[3-(Dimethylamino)propyl]-10-[(3′-methoxy-2-methyl[1,1′-biphenyl]-4-yl)carbonyl]-N-methyl-10,11-dihydro-5H-pyrrolo[2,1-c][1,4]benzodiazepine-3-carboxamide]
- inhibition at 0.1 µM: 95%
